Reference: US12528777B2, “Quinazolinones derivatives for treatment of non-alcoholic fatty liver disease, preparation and use thereof” (Council of Scientific and Industrial Research, priority 2020, dated 2026)
“Also recorded” adds a separate entry of the source.

How the values were obtained:
ATGL = assay: Western blot of ATGL level in HepG2 cells; type: cell-based; design: key to Increase in ATGL level: + = slight or in insignificant; ++ = Moderate; +++ and ++++ = active; +++ and ++++ = active; +++++ = very active; details: western blot; for Increase in ATGL level: HepG2 cells, score; for ATGL level in HepG2 cells: 24 hours, 10 μM screening or 50 nM-5 μM dose dependent
Method: (§1) To select the compounds capable of inhibiting the ubiquitination of ATGL by COP1 by targeting the VP motif, confocal microscopy was performed with the provided molecules. If the compound was effective in inhibiting the interaction, there would be a reduction in the number of fat droplets in the cells after treatment. […] With this rationale in mind, HepG2 cells were induced to accumulate lipid droplets after treatment with 250 µM of oleate and 10 μM of the specific compounds were added. The potential of the compounds to bring about a reduction in the number of fat droplets was then checked by comparison with oleate induced cells by counting number of droplets of approximately 20 cells from each treatment and calculating the average number of lipid droplets of each cell. The selected compounds were then subjected to dose dependent treatments and the ones which could maintain its potency to reduce fat droplets at lower doses were then selected for western blot analysis. The compound which could reduce the number of fat droplets in the cells are expected to raise the levels of ATGL since they are likely to deter COP1 from ubiquitinating ATGL. This increase will be visible only in the protein level and gene expression is likely to remain unchanged since ubiquitination is a […] modification. Thus, western blot was performed to check ATGL levels in the cells with the selected molecules.
HepG2 cells were treated with the compounds 9, 10, 11, 17, 18, 23, 24, 115, 123, 127, 139,107, 171, 179, 73, 187, 211, 215, 219, 223, 232, 238, 241, 244, 258, 299, 308, and 333a, (10 μM for initial screening and 50 nM, 100 nM, 200 nM, 500 nM, 1 μM and 5 μM for dose dependent assays) for 24 hours. After removing media from the cells, the wells were washed with 1×PBS twice to remove any remnant media. Cells were then lysed in lysis buffer containing 50 mM Tris-HCl (pH 7.4), 100 mM NaCl, 1 mM EDTA, 1 mM EGTA, 1% Triton X-100 and protease inhibitor cocktail (Millipore, Billierica, MA, USA). Following centrifugation at 20,000 g for 20 minutes, the protein solution was extracted from the cells. Protein was estimated using Bradford assay. Bradford's reagent (BioRad) was diluted in 1:4 ratio in double distilled water. 2 μl of protein sample was added to 100 μl of the reagent and absorbance was measured at 595 nm. […] of protein was diluted in lysis buffer. 1× loading buffer diluted from 5× stock containing 250 mM Tris-HCl (pH 6.8), 10% SDS, 50% glycerol, 0.1% bromophenol Blue and 10% β-mercaptoethanol was added. The protein samples were then heated at 95° C. for 10 minutes, cooled and centrifuged at 12,000 g for 2 minutes prior to loading.
For western blotting, the proteins were resolved in 10% SDS PAGE (discontinuous buffer system). 1× running buffer containing SDS, Tris Base and Glycine was used to run the gel at 80V for approximately 2 hours. Transfer was done using PVDF membrane (Millipore) having pore size of 0.45 μm. 1× transfer buffer containing Tris-Base, Glycine and 20% methanol was used for wet transfer. Transfer was done at 90V for 3 hours. Following transfer, the PVDF membrane containing the proteins were washed in 1×PBST comprising of 1×PBS and 1% Tween 20 (Sigma Aldrich). The membrane was then incubated for 1 hour at room temperature in 5% skim milk powder to block the non-specific sites. Following multiple washes with 1×PBST to wash away any remaining blocking buffer, the required primary antibody (COP1 [Bethyl Laboraties], ATGL [Cell Signalling Technology] or Actin[Cell Signalling Technology]) prepared with 1×PBST, 1% Bovine Serum Albumin and 0.04% Sodium Azide was added to the membrane and incubated overnight at 4° C. The next day, the membrane was again washed multiple times with 1×PBST to remove any unbound primary antibody. The membrane was then incubated with goat anti-rabbit secondary antibody (Genei) for 1 hour at room temperature and washed again for multiple times with 1×PBST. […]

HepG2 cells = assay: Confocal microscopy: lipid droplets in oleate induced HepG2 cells; type: cell-based; design: key to Reduction in Lipid Droplets: + = slight or in insignificant; ++ = Moderate; +++ and ++++ = active; +++ and ++++ = active; +++++ = very active; details: for Reduction in Lipid Droplets: oleate induced HepG2 cells, score; for Number of lipid droplets: HepG2 cells, 250 μM oleate induction
Method: as §1
HepG2 cells were plated in confocal dishes (SPL, Genetix Biotech Asia Pvt. Ltd.). The cells were allowed to adhere and divide for 16 hours. 10 μM for initial screening and 10 nM, 20 nM, 50 nM, 100 nM, 200 nM, 500 nM, 1 μM and 5 μM for dose dependent assays of the compounds 9 and 107 were dissolved in DMSO and added to the cells. 250 μM of oleate was used for induction. BSA (Sigma Aldrich) was used as a negative control. Post 24 hours of treatment, media was decanted from the cells and washed with 1×PBS solution to remove any remnant. 200 μl of staining solution containing 200 ng/ml BODIPY (Invitrogen) and 25 µg/ml HOECKST342 (Invitrogen) were added to the cells and incubated at 37° C. for 30 minutes under dark conditions. Cells were washed 3 times with 1×PBS to remove excess stain. FLUOVIEW FV10i (Olympus) was used to visualise the cells.

Compound	Increase in ATGL level (ATGL)	ATGL level in HepG2 cells (ATGL)	Reduction in Lipid Droplets (HepG2 cells)	Number of lipid droplets (HepG2 cells)
COCCn1cnc2ccc(NC(=O)Nc3cccc(C(=O)N4CCCC4)c3)cc2c1=O [Compound 18, 1-(3-(2-methoxyethyl)-4-oxo-3,4-dihydroquinazolin-6-yl)-3-(3-(pyrrolidine-1-carbonyl)phenyl)urea]	++++	increased ATGL level; also recorded: ability to increase ATGL level	+	–
COCCn1cnc2ccc(NC(=O)Nc3cccc(C(=O)NC(C(=O)OC)C(C)C)c3)cc2c1=O (stereo not shown) [Compound 16, methyl 2-(3-(3-(3-(2-methoxyethyl)-4-oxo-3,4-dihydroquinazolin-6-yl)ureido)benzamido)-3-methylbutanoate]	++++	–	+++	–
CC(=O)c1cccc(NC(=O)Nc2ccc3ncn(C4CCN(C)CC4)c(=O)c3c2)c1 [Compound 163, 1-(3-acetylphenyl)-3-(3-(1-methylpiperidin-4-yl)-4-oxo-3,4-dihydroquinazolin-6-yl)urea]	+	some sort of increase in ATGL level	++	reduction in lipid droplets
COCCn1c(-c2ccc(F)cc2)nc2ccc(NC(=O)Nc3cccc(C(C)=O)c3)cc2c1=O [Compound 115, 1-(3-acetylphenyl)-3-(2-(4-fluorophenyl)-3-(2-methoxyethyl)-4-oxo-3,4-dihydroquinazolin-6-yl)urea]	+	–	+	–
COCCn1cnc2ccc(NC(=O)Nc3cccc(-c4nc5ccccc5o4)c3)cc2c1=O [Compound 21, 1-(3-(benzo[d]oxazol-2-yl)phenyl)-3-(3-(2-methoxyethyl)-4-oxo-3,4-dihydroquinazolin-6-yl)urea]	+	–	+	–
COCCn1cnc2ccc(NC(=O)Nc3cccc(C(=O)c4ccccc4)c3)cc2c1=O [Compound 14, 1-(3-benzoylphenyl)-3-(3-(2-methoxyethyl)-4-oxo-3,4-dihydroquinazolin-6-yl)urea]	+	–	+	–
CCOC(=O)Cn1cnc2ccc(NC(=O)Nc3ccc(F)c(Cl)c3)cc2c1=O [Compound 83, ethyl 2-(6-(3-(3-chloro-4-fluorophenyl)ureido)-4-oxoquinazolin-3 (4H)-yl)acetate]	+	–	+	–
COCCn1cnc2ccc(NC(=O)Nc3ccccc3)cc2c1=O [Compound 5, 1-(3-(2-methoxyethyl)-4-oxo-3,4-dihydroquinazolin-6-yl)-3-phenylurea]	++	–	++	–
CC(=O)c1cccc(NC(=O)Nc2ccc3ncn(CCN4CCOCC4)c(=O)c3c2)c1 [Compound 135, 1-(3-acetylphenyl)-3-(3-(2-morpholinoethyl)-4-oxo-3,4-dihydroquinazolin-6-yl)urea]	+++	some sort of increase in ATGL level	++	reduction in lipid droplets
CC(=O)c1cccc(NC(=O)Nc2ccc3ncn(-c4cccnc4)c(=O)c3c2)c1 [Compound 155, 1-(3-acetylphenyl)-3-(4-oxo-3-(pyridin-3-yl)-3,4-dihydroquinazolin-6-yl)urea]	++	some sort of increase in ATGL level	+++	reduction in lipid droplets
COCCn1cnc2ccc(NC(=O)Nc3cccc(C(=O)N(C)C)c3)cc2c1=O [Compound 17, 3-(3-(3-(2-methoxyethyl)-4-oxo-3,4-dihydroquinazolin-6-yl)ureido)-N,N-dimethylbenzamide]	+++	increased ATGL level; also recorded: ability to increase ATGL level	+++	–
COc1cccc(-n2cnc3ccc(NC(=O)Nc4cccc(C(C)=O)c4)cc3c2=O)c1 [Compound 103, 1-(3-acetylphenyl)-3-(3-(3-methoxyphenyl)-4-oxo-3,4-dihydroquinazolin-6-yl)urea]	+	some sort of increase in ATGL level	+	reduction in lipid droplets
COCCn1cnc2ccc(NC(=O)Nc3cccc(OC)c3)cc2c1=O [Compound 6, 1-(3-(2-methoxyethyl)-4-oxo-3,4-dihydroquinazolin-6-yl)-3-(3-methoxyphenyl)urea]	++++	increase in ATGL level	++++	reduction of lipid droplet
COCCn1cnc2ccc(NC(=O)Nc3ccc(F)c(Cl)c3)cc2c1=O [Compound 36, 1-(3-chloro-4-fluorophenyl)-3-(3-(2-methoxyethyl)-4-oxo-3,4-dihydroquinazolin-6-yl)urea]	+++	–	+	–
CCOC(=O)Cn1cnc2ccc(NC(=O)Nc3ccc(OC(F)(F)F)cc3)cc2c1=O [Compound 84, ethyl 2-(4-oxo-6-(3-(4-(trifluoromethoxy)phenyl)ureido)quinazolin-3 (4H)-yl)acetate]	++	–	+++	–
COCCn1cnc2ccc(NC(=O)Nc3ccc(F)cc3)cc2c1=O [Compound 35, 1-(4-fluorophenyl)-3-(3-(2-methoxyethyl)-4-oxo-3,4-dihydroquinazolin-6-yl)urea]	+	–	+	–
COCCn1cnc2cc(NC(=O)Nc3cccc(C(C)=O)c3)ccc2c1=O [Compound 192, 1-(3-acetylphenyl)-3-(3-(2-methoxyethyl)-4-oxo-3,4-dihydroquinazolin-7-yl)urea]	+++	–	++	–
COCCn1cnc2ccc(NC(=O)Nc3cccc(N(Cc4ccccc4)C(C)=O)c3)cc2c1=O [Compound 24, N-benzyl-N-(3-(3-(3-(2-methoxyethyl)-4-oxo-3,4-dihydroquinazolin-6-yl)ureido)phenyl)acetamide]	++++	increased ATGL level	+	–
COCCn1cnc2ccc(NC(=O)Nc3cccc(C(=O)N4CCOCC4)c3)cc2c1=O [Compound 19, 1-(3-(2-methoxyethyl)-4-oxo-3,4-dihydroquinazolin-6-yl)-3-(3-(morpholine-4-carbonyl)phenyl)urea]	+	ability to increase ATGL level	++	–
